Assay results taken from patent US10561736B1, “Apoptosis inhibitor formulations for prevention of hearing loss” (Spiral Therapeutics, Inc., priority 2019, dated 2020).
In brackets after ≈: the same amount, converted by molar mass. Entries after “also recorded” stand apart in the source; their conditions may differ. Where two headings read alike, the source gives them in different places.

Legend:
[1] = worst-case human plasma concentration estimate; conditions: assumed maximum clinical dose 200 μg, human plasma volume 2400 mL
Description: These bioavailability values are similar to those described for other drugs formulated in POLOXAMER® gels and administered IT (Honeder, et al., Audiol. Neurootol. 2014, 19(3), 193-202; Wang, et al., Audiol. Neurootol. 2011, 16(4), 233-41; Yang, et al., Sci. Transl. Med. 2016, 8(356), 356ra120). Assuming a maximum clinical dose of 200 μg LPT99 and an average human plasma volume of 2400 mL (for an average 60-kg individual [typical blood plasma volume in males is ˜39 mL/kg of body weight, and in females ˜40 mL/kg]).

hERG = molecular target: T1, hERG (Homo sapiens, UniProt Q12809); assay: hERG automated patch clamp assay in hERG-CHO cells; format: cell-based
T1 construct: expressed in transfected cells; host or cells: CHO
Excerpt: The potential cardiotoxicity of LPT99 was investigated in an assay using the hERG-CHO cells transfected with the automated patch clamp assay.

[2] = in vitro release assay from P407 hydrogel through dialysis membrane into artificial perilymph; format: physicochemical; conditions: 3500 Da dialysis membrane, 37° C.
Description: The in vitro release assay was performed using cellulose dialysis membranes of 3500 Da (OrDial D35-MWCO 3500, Orange Scientific) to simulate the round window membrane, located between the middle ear and the inner ear, as it is the first barrier for the drug to reach the inner ear where it will exert its pharmacological action. (See FIG. 1) Artificial perilymph (NaCl 137 mM, KCl 5 mM, CaCl2 2 mM, MgCl2 1 mM and NaHCO3 1 mM) was used to simulate the environment inside the inner ear, since this is the liquid that interact with the drug after crossing the round window. The assay was performed at 37° C., continuing with the simulation of ear conditions.
To prepare the release assay, ten (10) mL of the LPT99 loaded hydrogel was placed inside a 3500 Da dialysis membrane, the membrane with the hydrogel was introduced into a 100 ml borosilicate glass lab bottle and 30 ml of artificial perilymph was added. All samples were kept under magnetic stirring at 37° C. […]
Samples were taken at different time points (1 h, 3 h, 6 h, 1 day, 2 days, 3 days, 6 days, 7 days, 8 days, 9 days, 10 days, 13 days, 14 days and 15 days) at which time 5 mL were withdrawn with a graduated glass pipette and replaced with equivalent volume of artificial perilymph. The collected samples were analyzed to determine the amount of drug released from the hydrogel at each time point. […]

[3] = calculation of the maximum recommended starting dose (MRSD); design: species or system human
Description: For the calculation of the maximum recommended starting dose (MRSD) the following parameters have been considered:
The total perilymph volume in rat will be then: (Cochlearperilymph+Semicircular canalsperilymph)=STperilymph+SVperilymph+Semicircular canalsperilymph=1.04+1.59+0.9=3.53 μl
The total perilymph volume in human has been described to be 158 μl (Buckingham and Valvassori, Ann. Otol. Rhinol. Laryngol. 2001, 110(2), 113-7).
The amount of LPT99 to be injected in humans is normalized with the volumes of perilymph in rats and humans and the amount injected at the NOAEL dose as follows: LPT99 injected,rats/Volume perilymphrats=LPT99 injected,humans/Volume perilymphhumans 15 μg/3.53 μl=Y μg/158 μl; Y=671.38 μg.
MRSD should not exceed that which is calculated to deliver 1/10th of the estimated perilymph concentration of LPT99 in rat at the NOAEL, when normalized to the perilymph volume in humans. 67.14 μg ( 1/10 of 671.38 μg) is calculated as the maximum mass of LPT99 to be delivered in a volume of 200 μl. The MRSD would be then 67.14 μg/200 μl=535 μM.

[4] = molecular target: apoptosome complex composed by recombinant Apaf-1, Cytc, deoxyadenosine triphosphate (dATP), and caspase 9 (Homo sapiens, UniProt O14727); assay: inhibition of apoptosome complex formation, recombinant proteins; format: biochemical; conditions: mean ± SD, read-out: apoptosome inhibition (measured as inhibition of caspase 3 activation)
Description: The specificity of LPT99 was tested in vitro on Apaf-1, caspase 3, and caspase 9 (proteins from the apoptotic cascade), and a broad panel of potential pharmacological targets.
LPT99 inhibited the formation of the apoptosome complex composed by recombinant Apaf-1, Cytc, deoxyadenosine triphosphate (dATP), and caspase 9. This activity was measured as inhibition of caspase 3 activation. […] To evaluate the specificity of the inhibition, an assay of caspase 3 and 9 activation was set up with recombinant proteins. The inhibitions of caspase 3 and 9 were 7.6±14.7 and 5.3±3.5, respectively, for LPT99.

HEI-OC1 cells = conditions: cellular model of CisPt-induced apoptosis; IEB Symposium abstracts 2016; cited from earlier work
[5] = metabolic stability in microsomal and S9 hepatic fractions; format: in vitro ADME; conditions: after 1 hour
Excerpt: The metabolic profile and stability of LPT99 was characterized in human, dog, rabbit, rat, and mouse microsomal and S9 fractions, and in human cytosolic fractions.

[6] = cochlear distribution after IT administration (absorption); format: in vivo; conditions: rat; for concentration at 24 h: cochlea (cochlear homogenate), other: intratympanic (IT), read-out: mean cochlear LPT99 concentration; for peak mean cochlear LPT99 concentration: 1 hour
Excerpt: Cochleae were harvested and rinsed at several timepoints after intratympanic injection of drug product. Drug concentration (y axis) in cochlear homogenates is expressed as nanograms LPT99 per gram of cochlear homogenate. • (i) Absorption
LPT99 cochlear distribution after IT administration was studied in rats. […] LPT99 concentration was quantified with an ultra-performance liquid chromatography tandem mass spectrometry (UPLC-ESI/MS/MS) system.

solubility = format: physicochemical

T1 sequence (Q12809 whole entry): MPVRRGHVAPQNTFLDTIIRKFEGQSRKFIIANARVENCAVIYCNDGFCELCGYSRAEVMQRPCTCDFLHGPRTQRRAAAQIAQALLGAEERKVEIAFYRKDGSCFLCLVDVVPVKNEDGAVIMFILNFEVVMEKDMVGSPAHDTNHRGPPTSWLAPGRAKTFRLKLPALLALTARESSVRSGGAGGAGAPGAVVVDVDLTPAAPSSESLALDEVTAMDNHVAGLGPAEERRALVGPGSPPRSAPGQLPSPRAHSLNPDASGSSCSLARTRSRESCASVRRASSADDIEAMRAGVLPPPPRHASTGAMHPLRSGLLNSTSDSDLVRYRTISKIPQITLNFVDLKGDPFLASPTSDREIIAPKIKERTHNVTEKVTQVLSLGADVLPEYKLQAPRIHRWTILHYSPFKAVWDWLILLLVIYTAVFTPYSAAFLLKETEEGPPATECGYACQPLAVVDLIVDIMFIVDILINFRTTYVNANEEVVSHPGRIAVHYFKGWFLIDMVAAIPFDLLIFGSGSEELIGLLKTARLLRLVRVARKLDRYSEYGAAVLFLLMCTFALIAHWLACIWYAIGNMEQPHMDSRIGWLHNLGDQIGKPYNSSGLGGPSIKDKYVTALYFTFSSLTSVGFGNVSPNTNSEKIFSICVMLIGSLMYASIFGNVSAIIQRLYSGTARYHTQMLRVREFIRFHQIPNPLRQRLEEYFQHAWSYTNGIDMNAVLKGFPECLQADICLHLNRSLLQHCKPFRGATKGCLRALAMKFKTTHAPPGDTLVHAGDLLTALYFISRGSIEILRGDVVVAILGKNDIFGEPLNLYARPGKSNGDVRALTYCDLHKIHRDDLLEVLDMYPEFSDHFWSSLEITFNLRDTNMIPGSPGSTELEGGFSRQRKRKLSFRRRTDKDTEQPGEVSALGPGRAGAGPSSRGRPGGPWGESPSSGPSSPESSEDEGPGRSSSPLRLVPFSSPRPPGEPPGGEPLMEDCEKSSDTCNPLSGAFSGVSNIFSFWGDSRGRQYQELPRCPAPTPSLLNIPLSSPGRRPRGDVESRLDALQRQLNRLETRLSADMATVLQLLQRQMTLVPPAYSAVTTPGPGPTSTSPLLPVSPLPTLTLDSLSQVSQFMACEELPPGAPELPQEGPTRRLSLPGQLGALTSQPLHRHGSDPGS
Sequence of apoptosome complex composed by recombinant Apaf-1, Cytc, deoxyadenosine triphosphate (dATP), and caspase 9 (O14727 whole entry, one chain of several): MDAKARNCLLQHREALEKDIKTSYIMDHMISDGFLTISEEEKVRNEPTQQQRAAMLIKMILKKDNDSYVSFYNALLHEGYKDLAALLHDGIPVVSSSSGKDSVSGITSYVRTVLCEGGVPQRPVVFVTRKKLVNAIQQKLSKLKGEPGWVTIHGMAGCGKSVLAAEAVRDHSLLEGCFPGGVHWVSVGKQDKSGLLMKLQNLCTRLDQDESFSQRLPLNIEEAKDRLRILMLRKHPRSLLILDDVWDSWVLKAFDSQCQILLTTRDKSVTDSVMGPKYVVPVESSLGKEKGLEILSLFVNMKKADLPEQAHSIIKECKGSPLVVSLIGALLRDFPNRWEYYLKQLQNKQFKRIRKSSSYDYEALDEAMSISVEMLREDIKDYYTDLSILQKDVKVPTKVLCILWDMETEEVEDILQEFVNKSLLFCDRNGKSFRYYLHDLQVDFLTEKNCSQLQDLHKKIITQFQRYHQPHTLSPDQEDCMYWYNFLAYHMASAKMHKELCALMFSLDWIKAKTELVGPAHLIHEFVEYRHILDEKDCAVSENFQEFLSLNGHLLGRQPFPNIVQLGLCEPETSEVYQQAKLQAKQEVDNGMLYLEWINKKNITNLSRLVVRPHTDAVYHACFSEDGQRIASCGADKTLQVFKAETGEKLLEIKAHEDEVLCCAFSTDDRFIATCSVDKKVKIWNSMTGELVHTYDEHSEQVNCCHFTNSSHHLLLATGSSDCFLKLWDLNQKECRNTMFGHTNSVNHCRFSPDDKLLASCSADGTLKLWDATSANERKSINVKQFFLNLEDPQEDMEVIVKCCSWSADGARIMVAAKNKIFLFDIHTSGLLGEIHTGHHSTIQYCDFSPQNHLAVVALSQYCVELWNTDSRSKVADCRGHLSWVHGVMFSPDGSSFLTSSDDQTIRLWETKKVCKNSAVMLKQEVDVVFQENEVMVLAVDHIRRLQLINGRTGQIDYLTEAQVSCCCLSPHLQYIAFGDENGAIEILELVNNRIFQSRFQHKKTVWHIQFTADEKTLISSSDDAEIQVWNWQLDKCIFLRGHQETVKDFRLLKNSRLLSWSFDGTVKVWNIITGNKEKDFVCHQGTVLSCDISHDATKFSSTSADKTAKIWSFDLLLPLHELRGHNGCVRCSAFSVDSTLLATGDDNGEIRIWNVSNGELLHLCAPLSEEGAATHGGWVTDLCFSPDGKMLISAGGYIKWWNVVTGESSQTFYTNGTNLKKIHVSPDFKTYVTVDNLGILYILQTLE

**Q.** Which results are given for `COc1ccc2[nH]cc(CCNC(=O)CC3C(=O)N(CCc4ccc(Cl)cc4Cl)CC(=O)N3CCc3cccs3)c2c1` (stereo not drawn) [LPT99, 2-(4-(2,4-dichlorophenethyl)-3,6-dioxo-1-(2-(thiophen-2-yl)ethyl)piperazin-2-yl)-N-(2-(5-methoxy-1H-indol-3-yl)ethyl)acetamide]?
**A.** plasma LPT99 concentration if IT dose were 100% bioavailable [1]: 0.066 µM; safety margin (hERG IC50 vs plasma detection limit 3.2 nM) (hERG): > 1063; IC50 (hERG; hERG-CHO cells, automated patch clamp): 3.4 µM; LPT99 release from hydrogel over time [2]: released in effective amounts for at least one week; MRSD ([3]; human): 535 µM; maximum mass of LPT99 to be delivered (1/10 of NOAEL equivalent) ([3]; in a volume of 200 μl): 67.14 µg; amount of LPT99 to be injected in humans normalized by perilymph volume at the NOAEL ([3]; rat 3.53 μl vs human 158 μl perilymph): 671.38 µg; inhibition at 10 µM [4]: 78.9%; cell viability (HEI-OC1 cells): improved cell viability; metabolized ([5]; dog microsomal and S9 hepatic fractions): > 90%; metabolized ([5]; human microsomal and S9 hepatic fractions): > 90%; metabolized ([5]; mouse microsomal and S9 hepatic fractions): > 90%; metabolized ([5]; rabbit microsomal and S9 hepatic fractions): > 90%; metabolized ([5]; rat microsomal and S9 hepatic fractions): > 90%; concentration at 24 h ([6]; IT 50 μM): 1.8 ng/g; concentration at 24 h ([6]; IT 100 μM): 13.9 ng/g; concentration at 24 h ([6]; IT 200 μM): 13.4 ng/g; distribution after IT administration ([6]; IT): distributes locally to the cochlea; also recorded: distributed to cochlea in a dose-dependent manner; peak mean cochlear LPT99 concentration ([6]; IT 50 μM): 328.5 ng/g cochlea; peak mean cochlear LPT99 concentration ([6]; IT 100 μM): 491.3 ng/g cochlea; peak mean cochlear LPT99 concentration ([6]; IT 200 μM): 611.1 ng/g cochlea; increase in drug solubility (solubility; 14.7 wt/wt % vehicle vs aqueous): 332 fold; solubility (solubility; aqueous (not further specified), read-out: aqueous solubility): 2.4 µM (≈ 1.51 µg/mL); solubility (solubility; aqueous with cosolvent or surfactant or cyclodextrin, 14.7 wt/wt %, read-out: solubility in 14.7 wt/wt % vehicle): ≥ 797 µM
